Patent US20240148821A1, “PHARMACEUTICAL USE OF CYCLIC PEPTIDE COMPOUND” (CHUGAI SEIYAKU KABUSHIKI KAISHA, priority 2021, published 2024)
Numbered stars: 1 amine (or outer) side, 2 acyl side, 3 side chain; on linkers, the order of the positions; unused ones are H or OH. Bridge positions count the residues as written; N and C are the ends. Square brackets hold non-standard residues; d marks the D form. Peptide text beside a SMILES is read from it. * marks the point of attachment. hPhe(3,5-F2-4-CF3) = N[C@@H](CCc1cc(F)c(C(F)(F)F)c(F)c1)C(=O)O; hPhe(3-Cl-4-CF3) = N[C@@H](CCc1ccc(C(F)(F)F)c(Cl)c1)C(=O)O; NMePhe(4-CF3) = CN[C@@H](Cc1ccc(C(F)(F)F)cc1)C(=O)O; NEtPhe(2-Cl) = CCN[C@@H](Cc1ccccc1Cl)C(=O)O; NMedβ3hAla = C[C@H](CC(=O)[*:2])N(C)[*:1]; NMeGly(cPent) = CN[C@H](C(=O)O)C1CCCC1; Pro(4,4-F2) = O=C(O)[C@@H]1CC(F)(F)CN1; NMeCha = CN[C@@H](CC1CCCCC1)C(=O)O; X124 = O=C([C@H]1COCCN1[*:1])[*:2]; NMeAhp(2) = CCCCC[C@H](NC)C(=O)O; NMeCba = CN[C@@H](CC1CCC1)C(=O)O; NMeChg = CN[C@H](C(=O)O)C1CCCCC1; Piperidide(4-Me) = CC1CCN(*)CC1; NMeD = CN[C@@H](CC(=O)O)C(=O)O; NMeL = CN[C@@H](CC(C)C)C(=O)O; NMeNle = CCCC[C@H](NC)C(=O)O; NMeV = CN[C@H](C(=O)O)C(C)C; d(β3hA) = C[C@@H](N)CC(=O)O; NMeA = CN[C@@H](C)C(=O)O; Piperidide = C1CCN(*)CC1; dNMeA = CN[C@H](C)C(=O)O; Ac5c = NC1(C(=O)O)CCCC1; Aze = O=C(O)[C@@H]1CCN1; Ac4c = NC1(C(=O)O)CCC1; Sar = CNCC(=O)O

Each compound was assayed against protein-protein interaction between Kras and SOS1 (biotin-tagged human Kras loaded with GDP, His-tagged human SOS1) (Homo sapiens (Human), UniProt P01116, G12D) (assay: Protein-protein interaction inhibition between Kras and SOS1 (KrasG12D-SOS PPI) using AlphaScreen). Conditions: AlphaScreen; biotin-tagged human Kras loaded with GDP, His-tagged human SOS1; read-out: KRAS G12D-SOS PPI IC50.
Assay type: biochemical

Compound | IC50 [nM]
CC[C@H](C)[C@@H]1NC(=O)[C@H](CC(C)C)N(C)C(=O)C[C@@H](C)NC(=O)[C@H](C2CCCC2)N(C)C(=O)C2(CCCC2)NC(=O)[C@@H]2CCCN2C(=O)[C@H](CCc2ccc(C(F)(F)F)c(Cl)c2)NC(=O)[C@@H](C)N(C)C(=O)[C@H](Cc2ccc(C(F)(F)F)cc2)N(C)C(=O)[C@@H]2CCN2C(=O)[C@H](C)N(C)C1=O [Compound 1482] (cyclo([Ac5c][NMeGly(cPent)][d(β3hA)][NMeL]I[NMeA][Aze][NMePhe(4-CF3)][dNMeA][hPhe(3-Cl-4-CF3)]P)) | 88
CC[C@H](C)[C@@H]1NC(=O)[C@H](CC(C)C)N(C)C(=O)C[C@@H](C(=O)N2CCC(C)CC2)NC(=O)[C@H](C(C)C)N(C)C(=O)C2(CCCC2)NC(=O)[C@@H]2CCCN2C(=O)[C@H](CCc2ccc(C(F)(F)F)c(Cl)c2)NC(=O)CN(C)C(=O)[C@H](CC2CCCCC2)N(C)C(=O)[C@@H]2CCN2C(=O)[C@H](C)N(C)C1=O [Compound 1161] ([NMeL]I[NMeA][Aze][NMeCha][Sar][hPhe(3-Cl-4-CF3)]P[Ac5c][NMeV]D-{Piperidide(4-Me)}; lactam N-11) | 60
CC[C@H](C)[C@@H]1NC(=O)[C@H](CC(C)C)N(C)C(=O)C[C@@H](C(=O)N2CCCCC2)N(C)C(=O)[C@H](C(C)C)N(C)C(=O)C2(CCCC2)NC(=O)[C@@H]2CCCN2C(=O)[C@H](CCc2ccc(C(F)(F)F)c(Cl)c2)NC(=O)CN(C)C(=O)[C@H](CC2CCCCC2)N(C)C(=O)[C@@H]2CCN2C(=O)[C@H](C(C)C)N(C)C1=O [Compound 1592] ([NMeL]I[NMeV][Aze][NMeCha][Sar][hPhe(3-Cl-4-CF3)]P[Ac5c][NMeV][NMeD]-Piperidide; lactam N-11) | 210
CCCC[C@H]1C(=O)N(C)[C@H](C(=O)N2CCCCC2)CC(=O)N(C)[C@@H](CC(C)C)C(=O)N[C@@H]([C@@H](C)CC)C(=O)N(C)[C@@H](C)C(=O)N2CC[C@H]2C(=O)N(C)[C@@H](CC2CCCCC2)C(=O)N(C)CC(=O)N[C@@H](CCc2ccc(C(F)(F)F)c(Cl)c2)C(=O)N2CCC[C@H]2C(=O)NC2(CCCC2)C(=O)N1C [Compound 1859] ([NMeL]I[NMeA][Aze][NMeCha][Sar][hPhe(3-Cl-4-CF3)]P[Ac5c][NMeNle][NMeD]-Piperidide; lactam N-11) | 15
CC[C@H](C)[C@@H]1NC(=O)[C@H](C)N(C)C(=O)C[C@@H](C)NC(=O)[C@H](C(C)C)N(C)C(=O)C2(CCCC2)NC(=O)[C@@H]2CCCN2C(=O)[C@H](CCc2ccc(C(F)(F)F)c(Cl)c2)NC(=O)[C@H]2CCCN2C(=O)[C@H](CC2CCCCC2)N(C)C(=O)CN(C)C(=O)CN(C)C1=O [Compound 412] (cyclo([Ac5c][NMeV][d(β3hA)][NMeA]I[Sar][Sar][NMeCha][dP][hPhe(3-Cl-4-CF3)]P)) | 120
CCCCC[C@H]1C(=O)N(C)CC(=O)N[C@@H](CCc2ccc(C(F)(F)F)c(Cl)c2)C(=O)N2CCC[C@H]2C(=O)NC2(CCCC2)C(=O)N(C)[C@@H](C(C)C)C(=O)N(C)[C@H](C(=O)N2CCCCC2)CC(=O)N(C)[C@@H](CC(C)C)C(=O)N[C@@H]([C@@H](C)CC)C(=O)N(C)[C@@H](C)C(=O)N2CC[C@H]2C(=O)N1C [Compound 1854] ([NMeL]I[NMeA][Aze][NMeAhp(2)][Sar][hPhe(3-Cl-4-CF3)]P[Ac5c][NMeV][NMeD]-Piperidide; lactam N-11) | 5.5
CC[C@H](C)[C@@H]1NC(=O)[C@H](CC(C)C)N(C)C(=O)C[C@@H](C(=O)N2CCCCC2)N(C)C(=O)[C@H](C(C)C)N(C)C(=O)C2(CCCC2)NC(=O)[C@@H]2CCCN2C(=O)[C@H](CCc2ccc(C(F)(F)F)c(Cl)c2)NC(=O)CN(C)C(=O)[C@H](CC2CCCCC2)N(C)C(=O)[C@@H]2CCN2C(=O)[C@H](CC2CCC2)N(C)C1=O [Compound 1603] ([NMeL]I[NMeCba][Aze][NMeCha][Sar][hPhe(3-Cl-4-CF3)]P[Ac5c][NMeV][NMeD]-Piperidide; lactam N-11) | 94
CC[C@H](C)[C@@H]1NC(=O)[C@H](C)N(C)C(=O)C[C@@H](C(=O)N(C)C)N(C)C(=O)[C@H](C(C)C)N(C)C(=O)C2(CCCC2)NC(=O)[C@H](Cc2ccccc2Cl)N(CC)C(=O)[C@H](CCc2ccc(C(F)(F)F)c(Cl)c2)NC(=O)CN(C)C(=O)[C@H](CC2CCCCC2)N(C)C(=O)CN(C)C(=O)CN(C)C1=O [Compound 2164] ([NMeA]I[Sar][Sar][NMeCha][Sar][hPhe(3-Cl-4-CF3)][NEtPhe(2-Cl)][Ac5c][NMeV][NMeD]-NMe2; lactam N-11) | 300
CC[C@H](C)[C@@H]1NC(=O)[C@H](CC(C)C)N(C)C(=O)C[C@@H](C)N(C)C(=O)[C@H](C2CCCCC2)N(C)C(=O)C2(CCC2)NC(=O)[C@@H]2CC(F)(F)CN2C(=O)[C@H](CCc2cc(F)c(C(F)(F)F)c(F)c2)NC(=O)CN(C)C(=O)[C@H](Cc2ccc(C(F)(F)F)cc2)N(C)C(=O)[C@@H]2CCN2C(=O)[C@H](C)N(C)C1=O [Compound 34] (cyclo([Ac4c][NMeChg][NMedβ3hAla][NMeL]I[NMeA][Aze][NMePhe(4-CF3)][Sar][hPhe(3,5-F2-4-CF3)][Pro(4,4-F2)])) | 74
CC[C@H](C)[C@@H]1NC(=O)[C@H](CC(C)C)N(C)C(=O)C[C@@H](C(=O)N2CCCCC2)N(C)C(=O)[C@H](C2CCCCC2)N(C)C(=O)C2(CCCC2)NC(=O)[C@H]2COCCN2C(=O)[C@H](CCc2ccc(C(F)(F)F)c(Cl)c2)NC(=O)CN(C)C(=O)[C@H](CC2CCCCC2)N(C)C(=O)CN(C)C(=O)CN(C)C1=O [Compound 1445] ([NMeL]I[Sar][Sar][NMeCha][Sar][hPhe(3-Cl-4-CF3)][X124][Ac5c][NMeChg][NMeD]-Piperidide; lactam N-11) | 250
